In patent publication US20260138957A1, “UREA-LINKED 2-AMINOIMIDAZOLE DIMER POTENTIATORS” (UNIVERSITY OF NOTRE DAME DU LAC, priority 2022, published 2026):
In brackets after ≈: the same amount, converted by molar mass.

How the values were obtained:
P. aeruginosa (PAO1) [1] = experiment: Standalone MIC against PAO1; assay type: cell-based, Pseudomonas aeruginosa; details: 9k alone
membrane integrity = experiment: BacLight assay of membrane integrity; assay type: cell-based; details: in comparison to untreated control
Source text: We then quantified how compound 9k impacted membrane integrity using the BacLight assay. Compound 9k had essentially no impact on the membrane in comparison to untreated control and produced a −1.2±2.2% change in membrane permeability.

[2] = test system: A. baumannii strain 5075 (AB5075); experiment: Standalone MIC against AB5075 (compound or antibiotic alone); assay type: cell-based, Acinetobacter baumannii; details: Acinetobacter baumannii; compound alone, AB5075
Source text: Dimers were first analyzed for standalone toxicity against AB5075.

[3] = test system: Escherichia coli (EC 25922); experiment: CLR MIC in combination with 9k against EC 25922; assay type: cell-based
[4] = test system: K. pneumoniae (strain KP 2146); experiment: Standalone MIC against KP 2146; assay type: cell-based, Klebsiella pneumoniae; details: 9k alone
A. baumannii = experiment: CLR adjuvant activity with exogenous LOS added to the media; assay type: cell-based, Acinetobacter baumannii; details: LOS from AB5075 at 0.2 mg/mL or 0.5 mg/mL
Method: First, we examined the impact that addition of MgCl2 had on activity. Divalent cations, such as Mg^2+, are known to stabilize the outer membrane of gram-negative bacteria and the activity of membrane disruptors are known to be muted/abrogated by the addition of such cations. When the media was supplemented with MgCl2 (20 mM final concentration), activity was essentially abolished. As suppression of activity could conceivably originate from either blocking the compound's mechanism of action or simply making the membrane more impermeable that leads to the inability of the compound to penetrate the outer membrane, we next studied the impact that the addition of exogenous LOS had upon activity.

Plasma stability = assay type: in vitro ADME; details: 4 hours
[5] = Microsomal (metabolic) stability; assay type: in vitro ADME; details: 60 minutes
P. aeruginosa (PAO1) [6] = experiment: CLR MIC in combination with 9k against PAO1; assay type: cell-based, Pseudomonas aeruginosa
[7] = test system: A. baumannii strain 5075 (AB5075); experiment: Clarithromycin potentiation against AB5075 (CLR MIC in presence of adjuvant); assay type: cell-based, Acinetobacter baumannii; details: for CLR MIC / Fold Reduction of CLR MIC / Clarithromycin (CLR) MIC: AB5075
[8] = test system: panel of A. baumannii isolates; experiment: CLR potentiation against panel of A. baumannii isolates; assay type: cell-based, Acinetobacter baumannii; details: 25 AB strains, adjuvant at 10 μM (4.8 μg/mL) or less
red blood cells = experiment: Hemolysis assay; assay type: cell-based; details: 1% Triton X as 100% lysis control
AB5075 = experiment: Potentiation of azithromycin, erythromycin and rifampin against AB5075; assay type: cell-based, Acinetobacter baumannii
[9] = test system: Escherichia coli (EC 25922); experiment: Standalone MIC against EC 25922; assay type: cell-based; details: 9k alone, read-out: Compound MIC
[10] = test system: K. pneumoniae (strain KP 2146); experiment: CLR MIC in combination with 9k against KP 2146; assay type: cell-based, Klebsiella pneumoniae
HepG2 cells = experiment: Cytotoxicity, XTT assay with HepG2 cells; details: read-out: IC50, HepG2 cells; mammalian cell toxicity
AB 5075 = experiment: Colistin MIC in absence or presence of compounds against AB 5075; assay type: cell-based, Acinetobacter baumannii; details: AB5075
Source text: However, dropping LOS comes with fitness costs such as reduced growth rates, lower virulence, and increased sensitivity towards certain antibiotics.

K. pneumoniae 2146 = experiment: Combination with RIF against K. pneumoniae 2146; assay type: cell-based, Klebsiella pneumoniae; details: K. pneumoniae 2146, compared with the parent dimers
[11] = AB5075, adjuvant at 7.5 μM (3.6 μg/mL)

Nc1nc(-c2ccc(NC(=O)Nc3cccc(-c4c[nH]c(N)n4)c3F)cc2F)c[nH]1 [Compound 9k, 1-(3-(2-amino-1H-imidazol-4-yl)-2-fluorophenyl)-3-(4-(2-amino-1H-imidazol-4-yl)-3-fluorophenyl)urea]
Compound MIC (P. aeruginosa (PAO1) [1]): >200 µM
change in membrane permeability (membrane integrity): −1.2±2.2%
MIC [2]: > 200 µM
fold potentiation of CLR [3]: at least 256 fold
CLR MIC + 9k ([3]; 9k at 2.5 μM): 32 µg/mL
CLR MIC + 9k ([3]; 9k at 3.0 μM): 4 µg/mL
CLR MIC + 9k ([3]; 9k at 3.75 μM): 0.125 µg/mL
Compound MIC [4]: >200 µM
CLR adjuvant activity with exogenous LOS (in words) (A. baumannii): no loss of adjuvant activity
plasma stability (in words) (Plasma stability): steady concentration over 4 hours
microsomal stability (in words) [5]: steady concentration over 60 minutes
fold potentiation of CLR (P. aeruginosa (PAO1) [6]): at least 256 fold
CLR MIC + 9k (P. aeruginosa (PAO1) [6]; 9k at 20 μM): 4/8
CLR MIC + 9k (P. aeruginosa (PAO1) [6]; 9k at 30 μM): 0.5 µg/mL
lowest concentration at which the adjuvant suppressed the clarithromycin MIC to 2.0 μg/mL ([7]; AB5075, value in brackets): 0.72 µg/mL
CLR MIC ([7]; adjuvant at 1.5 μM): 2 µg/mL
Fold Reduction of CLR MIC ([7]; adjuvant at 1.5 μM): 16 fold
CLR MIC ([7]; adjuvant at 2.5 μM): 0.125 µg/mL
Fold Reduction of CLR MIC ([7]; adjuvant at 2.5 μM): 256 fold
Clarithromycin (CLR) MIC ([7]; adjuvant at 5 μM): 0.0625 µg/mL
Fold Reduction of CLR MIC ([7]; adjuvant at 5 μM): 512 fold
Clarithromycin (CLR) MIC ([7]; adjuvant at 7.5 μM): ≤0.0625 µg/mL
Fold Reduction of CLR MIC ([7]; adjuvant at 7.5 μM): ≥512 fold
Clarithromycin (CLR) MIC ([7]; adjuvant at 10 μM): ≤0.0625 µg/mL
Fold Reduction of CLR MIC ([7]; adjuvant at 10 μM): ≥512 fold
Clarithromycin (CLR) MIC ([7]; adjuvant at 20 μM): ≤0.0625 µg/mL
Fold Reduction of CLR MIC ([7]; adjuvant at 20 μM): ≥512 fold
Clarithromycin (CLR) MIC ([7]; adjuvant at 30 μM): ≤0.0625 µg/mL
Fold Reduction of CLR MIC ([7]; adjuvant at 30 μM): ≥512 fold
lowering of CLR MIC values [8]: at least four-fold
lytic effect on red blood cells (in words) (red blood cells; compound at 10 μM in combination with 0.0625 μg/mL clarithromycin): little to no lytic effect
lytic effect on red blood cells (in words) (red blood cells; compound): little to no lytic effect
fold decrease of RIF MIC (AB5075; AB5075, adjuvant at 5 μM (2.4 μg/mL)): 32 fold
fold decrease of AZM MIC (AB5075; [11]): at least 64 fold
fold decrease of ERY MIC (AB5075; [11]): at least 64 fold
fold decrease of RIF MIC (AB5075; AB5075, adjuvant at 10 μM): 32 fold
activity in combination with AZM, ERM and RIF (in words) (AB5075; AB5075, adjuvant at ≤30% their MIC): significant activity
MIC [9]: 12.5 µM (≈ 5.13 µg/mL)
fold potentiation of CLR [10]: at least 256 fold
CLR MIC + 9k ([10]; 9k at 7.5 μM): 16 µg/mL
CLR MIC + 9k ([10]; 9k at 10 μM): 2 µg/mL
CLR MIC + 9k ([10]; 9k at 30 μM): 1 µg/mL
IC50 (HepG2 cells): 431 µM
potentiation of colistin (in words) (AB 5075): did not potentiate the activity
Colistin MIC (AB 5075; adjuvant at 30 μM): 2 µg/mL
potentiation of RIF (in words) (K. pneumoniae 2146): greater potentiation activity at lower concentrations
